Patent US11419902B2, “Compositions comprising bacterial strains” (4D Pharma Research Limited, priority 2018, dated 2022)

Experiments:
[1] = tested on: SKMEL31 melanoma cell line; experiment: Soft agar growth of SKMEL31 cell line; assay type: cell-based; details: SKMEL31, added to MRx0029
Protocol: (§1) A mixture of 25 μL prewarmed (37° C.) 2× appropriate growth medium (EMEM for melanoma cell lines; DMEM high glucose for HT29) containing 20% FBS, 4 mM L-Glu, 2×NEAA, 0.6% sodium bicarbonate, 200 U/mL penicillin/streptomycin (Invitrogen), and 25 μL prewarmed (47° C.) 1.2% Noble Agar (A5431; Sigma Aldrich) were plated onto each well of a 96-well microplate to serve as a prelayer for the assay. Ten microliters of cell suspensions containing 0-2×10^3 cells were mixed with 25 μL 2× growth media and 35 μL 0.8% Noble Agar in a 96-well round-bottom polypropylene microplate and transferred to the 96-well microplate containing the solidified prelayers. […] They left to grow in the humidified 37° C. incubator with 5% CO2 for 1-2 weeks before soft agar growth was scored using the CytoSelect 96 well cell transformation assay (CBA-130; Cell Biolabs) according to the manufacturer's protocol. Cell growth was measured using a Tecan Infinite F200 Pro Series Multi-Well Plate Reader (Tecan Biosystems), with excitation at 485 nm and emission at 530 nm. […]
(§2) The effects of the following treatments were assessed on the SKMEL31 melanoma cell line (heterozygous for BRAF V600E): (1) MRx0029; (2) Vemurafenib (VEMU) in YFCA+ medium; (3) VEMU and MRx0029; (4) Azacytidine-C (Aza-c) in YFCA+ medium; (5) Aza-c and MRx0029; (6) VEMU, Aza-c and MRx0029.

[2] = tested on: SKMEL31 melanoma cell line; experiment: Clonogenic survival of SKMEL31 cell line; assay type: cell-based; details: SKMEL31, added to MRx0029
Protocol: (§3) Cells were trypsinized and 200 cells/well were seeded in 12-well plates. After 48 h cells were treated with the appropriate drugs in absence (YCFA+) or presence of 10% bacterial supernatant and were re-fed every three days. On day 21 after seeding, cells were fixed in ice-cold methanol and stained with Crystal Violet blue. […] were counted and survival fraction was calculated as number of colonies divided by the number of plated cells (plating efficiency) of treated divided by the plating efficiency of control.
as §2

451Lu melanoma cell line = experiment: Soft agar growth of 451Lu cell line; assay type: cell-based; details: added to MRx0029
Protocol: as §1
The effects of the following treatments were assessed on the 451Lu melanoma cell line (V600E oncogenic mutation in BRAF): (1) MRx0029; (2) Vemurafenib (VEMU) in YFCA+ medium; (3) VEMU and MRx0029; (4) Azacytidine-C (Aza-c) in YFCA+ medium; (5) Aza-c and MRx0029; (6) VEMU, Aza-c and MRx0029.

[3] = tested on: HT29 colorectal cancer cell line; experiment: Clonogenic survival of HT29 cell line; assay type: cell-based; details: HT29, added to MRx0029
Protocol: as §3
The effects of the following treatments were assessed on the HT29 colorectal cancer cell line (V600E oncogenic mutation in BRAF): (1) MRx0029; (2) Vemurafenib (VEMU) in YFCA+ medium; (3) VEMU and MRx0029; (4) Azacytidine-C (Aza-c) in YCFA+ medium; (5) Aza-c and MRx0029; (6) VEMU, Aza-c and MRx0029.

IL-8 [4] = experiment: IL-8 secretion by differentiated HT29-mtx cells; assay type: cell-based; details: 24 h, vs untreated and YCFA+-treated cells
Text: The ability of MRx0029 to cause any intestinal barrier dysfunction was investigated. HT29-mtx epithelial, mucin-producing cell monolayers were used as an in vitro model to evaluate gut barrier disruption and immune stimulation following treatment with MRx0029.

IL-8 [5] = experiment: IL-8 secretion in U373 cells treated with SCFAs or supernatant fractions (ELISA); assay type: cell-based, Human; details: U373 cells pre-treated 1 h with 1 μg/ml LPS, increasing concentrations
Protocol: Human glioblastoma astrocytoma cell line (U373), were maintained in 25 ml MEME 4.5 g/L D-glucose supplemented with 10% heat-inactivated FBS, 4 mM L-Glutamine, 100 U/ml penicillin, 100 μg/ml streptomycin and 5 μg/ml plasmocin, 1% Non-Essential Amino Acids, 1% Sodium Pyruvate (referred to as full growth media).
U373 cells were prepared as described above. Cells were pre-treated for 1 h with 1 μg/ml LPS indicated above and incubated at 37° C. and 5% CO2. After 1 h pre-incubation, cells were removed from CO2 incubator and treated with increasing concentration of fresh prepared Sodium Butyrate (SB), Sodium Valerate (SV) and Hexanoic Acid (HA).
U373 cells were prepared as described above. Cells were pre-treated for 1 h with 1 μg/ml LPS as indicated above. Afterwards, cells were removed from CO2 incubator and treated with 100 μl of the different fractions. Fractions from media were used as controls. Cell-free supernatants were collected 24 h after treatment and analysed by ELISA for IL-8 secretion (as outlined above).

HDAC [6] = experiment: HDAC inhibition on whole HT-29 cells; assay type: cell-based
Protocol: (§4) Pure cultures of bacteria were grown anaerobically in YCFA+ broth until they reached their stationary growth phase. Cultures were centrifuged at 5,000×g for 5 minutes and the cell-free supernatant (CFS) was filtered using a […] (Millipore, UK). 1 mL aliquots of the CFS were stored at −80° C. until use. Sodium butyrate, hexanoic and valeric acid were obtained from Sigma Aldrich (UK) and suspensions were prepared in YCFA+ broth.
(§5) To investigate which metabolites were responsible for the strain-induced HDAC inhibition, different concentrations of hexanoic acid, valeric acid and sodium butyrate were measured for their HDAC inhibition on whole HT-29 cells and on HT-29 cell lysate.

HDAC [7] = experiment: HDAC inhibition on HT-29 cell lysate; assay type: biochemical
Protocol: as §4, §5

| SMILES | LPS-induced secretion of IL-8 (IL-8 [5]) | HDAC inhibition on whole HT-29 cells (HDAC [6]) | HDAC inhibition on HT-29 cell lysate (HDAC [7]) | other results |
| --- | --- | --- | --- | --- |
| Nc1ncn([C@@H]2O[C@H](CO)[C@@H](O)[C@H]2O)c(=O)n1 [Aza-c, Azacytidine-C] | – | – | – | effect on soft agar growth inhibition by MRx0029 [1]: improved; effect on clonogenic survival inhibition by MRx0029 [2]: improved; effect on soft agar growth inhibition by MRx0029 (451Lu melanoma cell line): enhanced soft agar growth inhibition by MRx0029; effect on inhibition of clonogenic survival by MRx0029 [3]: improved the effects of MRx0029 in inhibiting clonogenic survival |
| CCCCCCCCCCCCCC(=O)O[C@@H]1[C@@H](C)[C@@]2(O)[C@@H](C=C(CO)C[C@]3(O)C(=O)C(C)=C[C@@H]23)[C@@H]2C(C)(C)[C@]12OC(C)=O [PMA, phorbol 12-myristate-13-acetate, reference compound] | – | – | – | secretion of IL-8 (IL-8 [4]): secreted a significant amount of IL-8 |
| CCCCC(=O)[O-].[Na+] [SV, sodium valerate] | increased LPS-induced secretion of IL-8 | – | – | – |
| CCCCCC(=O)O [hexanoic acid] | did not inhibit IL-8 secretion | did not show significant inhibitory activity | did not show significant inhibitory activity | – |
| CCCC(=O)[O-].[Na+] [sodium butyrate] | increased LPS-induced secretion of IL-8 | significant (P<0.05) inhibition of HDAC activity | significant (P<0.05) inhibition of HDAC activity | – |
| CCCCC(=O)O [valeric acid] | – | inhibited HDAC activity | inhibited HDAC activity | – |
